Experimental findings from paper PMC9998865, “The toxic natural product tutin causes epileptic seizures in mice by activating calcineurin” (Signal Transduction and Targeted Therapy, 2023) are described below.

In assay [1] the target is T1, calcineurin (CN) catalytic subunit A (CNA); serine/threonine-protein phosphatase 2B catalytic subunit alpha isoform (Homo sapiens, UniProt Q08209).
T1 construct: gene PPP3CA; human CNA/CNB (CNA: M1-N370, CNB: 16-170), His-tagged, E. coli; with calcineurin B (CNB)
Nature of the assay: microscale thermophoresis (MST); supported by HDX-MS, CETSA and in vitro activation of CN. Type of assay: binding. (Microscale thermophoresis detects binding through changes in fluorescence in a small temperature gradient.)

Assay [2] concerns the target T2, calcineurin (CN) catalytic subunit A (CNA), CN-R254K (Homo sapiens, UniProt Q08209, R254K).
T2 construct: gene PPP3CA; human CNA/CNB (CNA: M1-N370, CNB: 16-170); with calcineurin B (CNB)
Nature of the assay: microscale thermophoresis (MST). Format: binding.

As to `C=C(C)[C@@H]1[C@H]2OC(=O)[C@@H]1[C@]1(O)[C@H]3O[C@H]3[C@]3(CO3)[C@]1(C)[C@@H]2O` [tutin], the Kd in assay [1] is 0.28 ± 0.27 µM; in assay [2], 7.64 ± 4.48 µM.

For orientation: Kd means the free concentration of one partner at which half of the binding sites on the other are occupied at equilibrium, for simple one-to-one binding.
